{
  "source": "the NIST ThermoML archive (doi:10.1016/j.jct.2005.07.011)",
  "experiment": "excess molar enthalpy (molar enthalpy of mixing); xn = mol fraction of the nth substance listed",
  "settings": "1000 kPa, Liquid, Flow calorimetry",
  "note": "± gives the expanded uncertainty stated by the source.",
  "data": [
    {"smiles": "CC(C)(C)O", "note": "[2-methylpropan-2-ol] + COC(=O)OC", "values": [
      {"measurement": "excess molar enthalpy", "setting": "298.15 K, x2 = 0.05", "result": "0.128 ± 0.00454", "unit": "kcal/mol"},
      {"measurement": "excess molar enthalpy", "setting": "298.15 K, x2 = 0.1", "result": "0.237 ± 0.00454", "unit": "kcal/mol"},
      {"measurement": "excess molar enthalpy", "setting": "298.15 K, x2 = 0.15", "result": "0.329 ± 0.0043", "unit": "kcal/mol"},
      {"measurement": "excess molar enthalpy", "setting": "298.15 K, x2 = 0.2", "result": "0.404 ± 0.0043", "unit": "kcal/mol"},
      {"measurement": "excess molar enthalpy", "setting": "298.15 K, x2 = 0.25", "result": "0.468 ± 0.0043", "unit": "kcal/mol"},
      {"measurement": "excess molar enthalpy", "setting": "298.15 K, x2 = 0.3", "result": "0.5164 ± 0.00454", "unit": "kcal/mol"},
      {"measurement": "excess molar enthalpy", "setting": "298.15 K, x2 = 0.35", "result": "0.554 ± 0.00478", "unit": "kcal/mol"},
      {"measurement": "excess molar enthalpy", "setting": "298.15 K, x2 = 0.4", "result": "0.5848 ± 0.00478", "unit": "kcal/mol"},
      {"measurement": "excess molar enthalpy", "setting": "298.15 K, x2 = 0.45", "result": "0.6031 ± 0.00478", "unit": "kcal/mol"},
      {"measurement": "excess molar enthalpy", "setting": "298.15 K, x2 = 0.5", "result": "0.6101 ± 0.00502", "unit": "kcal/mol"},
      {"measurement": "excess molar enthalpy", "setting": "298.15 K, x2 = 0.55", "result": "0.605 ± 0.00502", "unit": "kcal/mol"},
      {"measurement": "excess molar enthalpy", "setting": "298.15 K, x2 = 0.6", "result": "0.5876 ± 0.00478", "unit": "kcal/mol"},
      {"measurement": "excess molar enthalpy", "setting": "298.15 K, x2 = 0.65", "result": "0.5647 ± 0.00478", "unit": "kcal/mol"},
      {"measurement": "excess molar enthalpy", "setting": "298.15 K, x2 = 0.7", "result": "0.5272 ± 0.00454", "unit": "kcal/mol"},
      {"measurement": "excess molar enthalpy", "setting": "298.15 K, x2 = 0.75", "result": "0.4738 ± 0.00454", "unit": "kcal/mol"},
      {"measurement": "excess molar enthalpy", "setting": "298.15 K, x2 = 0.8", "result": "0.412 ± 0.00454", "unit": "kcal/mol"},
      {"measurement": "excess molar enthalpy", "setting": "298.15 K, x2 = 0.9", "result": "0.252 ± 0.0043", "unit": "kcal/mol"},
      {"measurement": "excess molar enthalpy", "setting": "298.15 K, x2 = 0.95", "result": "0.134 ± 0.00478", "unit": "kcal/mol"},
      {"measurement": "excess molar enthalpy", "setting": "328.15 K, x2 = 0.05", "result": "0.124 ± 0.0043", "unit": "kcal/mol"},
      {"measurement": "excess molar enthalpy", "setting": "328.15 K, x2 = 0.1", "result": "0.229 ± 0.0043", "unit": "kcal/mol"},
      {"measurement": "excess molar enthalpy", "setting": "328.15 K, x2 = 0.15", "result": "0.319 ± 0.0043", "unit": "kcal/mol"},
      {"measurement": "excess molar enthalpy", "setting": "328.15 K, x2 = 0.2", "result": "0.399 ± 0.0043", "unit": "kcal/mol"},
      {"measurement": "excess molar enthalpy", "setting": "328.15 K, x2 = 0.25", "result": "0.462 ± 0.0043", "unit": "kcal/mol"},
      {"measurement": "excess molar enthalpy", "setting": "328.15 K, x2 = 0.3", "result": "0.5154 ± 0.00454", "unit": "kcal/mol"},
      {"measurement": "excess molar enthalpy", "setting": "328.15 K, x2 = 0.35", "result": "0.5556 ± 0.00478", "unit": "kcal/mol"},
      {"measurement": "excess molar enthalpy", "setting": "328.15 K, x2 = 0.4", "result": "0.5831 ± 0.00478", "unit": "kcal/mol"},
      {"measurement": "excess molar enthalpy", "setting": "328.15 K, x2 = 0.45", "result": "0.602 ± 0.00478", "unit": "kcal/mol"},
      {"measurement": "excess molar enthalpy", "setting": "328.15 K, x2 = 0.5", "result": "0.6083 ± 0.00502", "unit": "kcal/mol"},
      {"measurement": "excess molar enthalpy", "setting": "328.15 K, x2 = 0.55", "result": "0.6034 ± 0.00478", "unit": "kcal/mol"},
      {"measurement": "excess molar enthalpy", "setting": "328.15 K, x2 = 0.6", "result": "0.5891 ± 0.00478", "unit": "kcal/mol"},
      {"measurement": "excess molar enthalpy", "setting": "328.15 K, x2 = 0.65", "result": "0.5623 ± 0.00478", "unit": "kcal/mol"},
      {"measurement": "excess molar enthalpy", "setting": "328.15 K, x2 = 0.7", "result": "0.5257 ± 0.00454", "unit": "kcal/mol"},
      {"measurement": "excess molar enthalpy", "setting": "328.15 K, x2 = 0.75", "result": "0.4695 ± 0.00454", "unit": "kcal/mol"},
      {"measurement": "excess molar enthalpy", "setting": "328.15 K, x2 = 0.8", "result": "0.411 ± 0.00454", "unit": "kcal/mol"},
      {"measurement": "excess molar enthalpy", "setting": "328.15 K, x2 = 0.9", "result": "0.245 ± 0.0043", "unit": "kcal/mol"},
      {"measurement": "excess molar enthalpy", "setting": "328.15 K, x2 = 0.95", "result": "0.128 ± 0.00478", "unit": "kcal/mol"}
    ]}
  ]
}
